Data taken from the RepoRT retention time repository (doi:10.1021/acs.analchem.2c02893).

Assay: RP, Thermo Scientific Acclaim RSLC 120 C18, 100 × 2.1 mm, 2.2 µm, 30 °C, 0.2 mL/min, estimated dead time 1.1 min; A: 90% water + 10% methanol + 0.01% formic acid + 5 mM ammonium formate, pH 3.61; B: methanol + 0.01% formic acid + 5 mM ammonium formate, pH 3.61; gradient (min/%B) 0/1 1/1 2/39 13/99.9 15/99.9 15.1/1 20.1/1
Settings: stereoisomer not certain

Row | SMILES | LC retention time [min]
1 | CN(C)CCCC1(c2ccc(F)cc2)OCc2cc(C(N)=O)ccc21 (stereo not given) [Citalopram amide] | 5.15
2 | OCCOCCN1CCN(C(c2ccccc2)c2ccc(Cl)cc2)CC1 (stereo not given) [Hydroxyzine] | 8.28
3 | CN1CCN(CCCN2c3ccccc3Sc3ccccc32)CC1 [Perazine] | 8.8
4 | COC(=O)C(Cl)Cc1ccc(Cl)cc1 (stereo not given) [Chlorfenprop-methyl] | 10.2
5 | COc1ccc2c3c1OC1C(O)CCC4C(C2)N(C)CCC341 (stereo not given) [Codeine-Dihydro] | 3.36
6 | CCCCCn1cc(C(=O)c2ccc(OC)cc2)c2ccccc21 [RCS-4] | 11.8
7 | CN(C)CCc1c[nH]c2ccc(CC3COC(=O)N3)cc12 (stereo not given) [Zolmitriptan] | 3.61
8 | Cc1ccccc1C(OCCN(C)C)c1ccccc1 (stereo not given) [Orphenadrine] | 7.44
9 | CNC(C)CC1CCCCC1 (stereo not given) [Levopropylhexedrine] | 5.74
10 | O=C(NC(=O)c1c(F)cccc1F)Nc1ccc(C(F)(F)F)cc1 [Penfluron] | 10.9
11 | COc1nc(NC(C)C)nc(NC(C)C)n1 [Prometon] | 8.86
12 | COP(=S)(OC)Oc1ccc([N+](=O)[O-])cc1 [Parathion-methyl] | 9.24
13 | CCOP(=S)(OCC)Oc1cc(Cl)c(Br)cc1Cl [Bromophos-ethyl] | 13.5
14 | ON=Cc1cc[n+](COC[n+]2ccc(C=NO)cc2)cc1 [Obidoxime] | 3.03
15 | Cc1ccc2c(-c3ccccc3)nc(=O)n(C(C)C)c2c1 [Proquazone] | 9.61
16 | CCCc1nn(C)c2c(=O)[nH]c(-c3cc(S(=O)(=O)N4CCN(C)CC4)ccc3OCC)nc12 [Sildenafil] | 7.88
17 | COC(=O)C(c1ccccc1)C1CCCCN1 (stereo not given) [Methylphenidate] | 4.96
18 | Nc1c(Cl)cc([N+](=O)[O-])cc1Cl [Dicloran] | 8.84

Row | SMILES | LC retention time [min]
19 | CC1NCCOC1c1ccccc1 (stereo not given) [Phenmetrazine] | 4.14
20 | CCCCCn1cc(C(=O)c2ccc(CC)c3ccccc23)c2ccccc21 [JWH-210] | 13.2
21 | CCCCCn1cc(C(=O)c2cccc3ccccc23)c2cc(O)ccc21 [JWH-018-M-5-OH-Ind] | 11.3
22 | CC1CC2C3CCC4=CC(=O)C=CC4(C)C3(F)C(O)CC2(C)C1(O)C(=O)CO (stereo not given) [Dexamethasone] | 8.38
23 | CNC(=O)CSP(=O)(OC)OC [Omethoate] | 3.35
24 | CNC(C)C(=O)c1ccc(OC)cc1 (stereo not given) [Methedrone] | 4.16
25 | CN(C(=O)CO)c1c(I)c(C(=O)NCC(O)CO)c(I)c(C(=O)NCC(O)CO)c1I (stereo not given) [Iomeprol] | 2.91
26 | C#CC1(OC(C)=O)CCC2C3CCC4=CC(=O)CCC4C3CCC21C (stereo not given) [Norethisterone acetate] | 10.8
27 | CC(C)C(NC(=O)c1nn(CCCCCF)c2ccccc12)C(N)=O (stereo not given) [AB-PINACA 5F] | 9.12
28 | Cc1ccc(-c2nc3ccc(C)cn3c2CC(=O)N(C)C)cc1 [Zolpidem] | 5.8
29 | O=C(Nc1cccc(Cl)c1)OCC#CCCl [Barban] | 9.74
30 | CN(C)CCC=C1c2ccccc2CCc2ccccc21 [Amitriptyline] | 8.23
31 | O=S(=O)(O)c1ccc2ccccc2c1 [2-Naphthalin sulfonic acid] | 5.44
32 | CC(C)(C)c1ccc(C(O)CCCN2CCC(C(O)(c3ccccc3)c3ccccc3)CC2)cc1 (stereo not given) [Terfenadine] | 9.69
33 | CC(C)C(N)C(=O)OCC(CO)OCn1cnc2c(=O)[nH]c(N)nc21 (stereo not given) [Valganciclovir] | 2.71
34 | CC(C)(C)c1ccc(C(=O)CCCN2CCC(OC(c3ccccc3)c3ccccc3)CC2)cc1 [Ebastine] | 10.9
35 | CCS(=O)(=O)c1cccnc1S(=O)(=O)NC(=O)Nc1nc(OC)cc(OC)n1 [Rimsulfuron] | 7.09
